Data from the NIST ThermoML archive (doi:10.1021/acs.jced.7b00106).

Details: Hot wire method

FC(F)(F)/C=C/Cl [(E)-1-chloro-3,3,3-trifluoroprop-1-ene]
Details | thermal conductivity [W/m/K]
313.49 K, 134 kPa, Gas | 0.01209
313.66 K, 195 kPa, Gas | 0.01193
313.74 K, 96 kPa, Gas | 0.01156
313.74 K, 97 kPa, Gas | 0.01206
313.81 K, 164 kPa, Gas | 0.01205
314.19 K, 96 kPa, Gas | 0.0121
314.29 K, 165 kPa, Gas | 0.01203
314.47 K, 132 kPa, Gas | 0.01204
314.68 K, 96 kPa, Gas | 0.01213
314.8 K, 166 kPa, Gas | 0.01203
315 K, 133 kPa, Gas | 0.01215
315.2 K, 96 kPa, Gas | 0.01218
315.34 K, 166 kPa, Gas | 0.01208
315.56 K, 132 kPa, Gas | 0.01212
315.75 K, 96 kPa, Gas | 0.01223
316.33 K, 96 kPa, Gas | 0.01227
321.04 K, 25085 kPa, Liquid | 0.08832
321.04 K, 34321 kPa, Liquid | 0.09144
321.04 K, 34326 kPa, Liquid | 0.09107
321.05 K, 43820 kPa, Liquid | 0.0947
321.1 K, 25070 kPa, Liquid | 0.08802
321.1 K, 34323 kPa, Liquid | 0.09161
321.12 K, 34308 kPa, Liquid | 0.0914
321.12 K, 43822 kPa, Liquid | 0.09482
321.33 K, 16965 kPa, Liquid | 0.08442
321.34 K, 9798 kPa, Liquid | 0.08117
321.36 K, 5192 kPa, Liquid | 0.07831
321.4 K, 197 kPa, Gas | 0.0125
321.4 K, 16967 kPa, Liquid | 0.08432
321.41 K, 254 kPa, Gas | 0.01268
321.41 K, 460 kPa, Liquid | 0.07538
321.42 K, 66597 kPa, Liquid | 0.1039
321.43 K, 56114 kPa, Liquid | 0.09911
321.44 K, 5187 kPa, Liquid | 0.07816
321.44 K, 66587 kPa, Liquid | 0.1042
321.45 K, 34301 kPa, Liquid | 0.09197
321.46 K, 43814 kPa, Liquid | 0.09486
321.47 K, 25082 kPa, Liquid | 0.08816
321.47 K, 34329 kPa, Liquid | 0.09187
321.47 K, 43832 kPa, Liquid | 0.09487
321.48 K, 458 kPa, Liquid | 0.07551
321.51 K, 66615 kPa, Liquid | 0.1035
321.52 K, 56121 kPa, Liquid | 0.0993
321.52 K, 66605 kPa, Liquid | 0.1041
321.55 K, 34296 kPa, Liquid | 0.09167
321.55 K, 43839 kPa, Liquid | 0.09474
321.56 K, 25086 kPa, Liquid | 0.08833
321.56 K, 34311 kPa, Liquid | 0.09191
321.63 K, 145 kPa, Gas | 0.01268
321.7 K, 256 kPa, Gas | 0.01247
321.72 K, 196 kPa, Gas | 0.01245
321.77 K, 98 kPa, Gas | 0.01281
321.78 K, 16953 kPa, Liquid | 0.08463
321.81 K, 9811 kPa, Liquid | 0.08084
321.85 K, 5178 kPa, Liquid | 0.07845
321.86 K, 66588 kPa, Liquid | 0.1041
321.88 K, 56118 kPa, Liquid | 0.1004
321.89 K, 16957 kPa, Liquid | 0.0846
321.91 K, 466 kPa, Liquid | 0.07595
321.91 K, 9793 kPa, Liquid | 0.08062
321.92 K, 43825 kPa, Liquid | 0.09584
321.94 K, 145 kPa, Gas | 0.01263
321.94 K, 34296 kPa, Liquid | 0.09207
321.94 K, 43828 kPa, Liquid | 0.09571
321.96 K, 5173 kPa, Liquid | 0.07856
321.96 K, 34304 kPa, Liquid | 0.09237
321.97 K, 142 kPa, Gas | 0.01247
321.97 K, 25089 kPa, Liquid | 0.0883
321.97 K, 66599 kPa, Liquid | 0.1033
321.99 K, 66600 kPa, Liquid | 0.1033
322 K, 56120 kPa, Liquid | 0.09953
322.01 K, 257 kPa, Gas | 0.01246
